These results are taken from ChEMBL document CHEMBL4017490, “Design, Synthesis, and Pharmacological Evaluation of Novel Multisubstituted Pyridin-3-amine Derivatives as Multitargeted Protein Kinase Inhibitors for the Treatment of Non-Small Cell Lung Cancer” (J Med Chem, 2017).

Series [1] has as its target Cyclin-dependent kinase 1 (Homo sapiens, UniProt P06493). Put plainly: Inhibition of CDK1 (unknown origin) by FRET assay.
Series [2] concerns the target Leukocyte tyrosine kinase receptor (Homo sapiens, UniProt P29376). Briefly: Inhibition of recombinant LTK (unknown origin) using poly (Glu,Tyr) 4:1 as substrate after 60 mins by ELISA.
Series [3] addresses Vascular endothelial growth factor receptor 2 (Homo sapiens, UniProt P35968). Put plainly: Inhibition of recombinant KDR (unknown origin) using poly (Glu,Tyr) 4:1 as substrate after 60 mins by ELISA. (An ELISA detects its analyte on a solid surface through an enzyme-linked reagent.)
For series [4], the target named is Receptor tyrosine-protein kinase erbB-4 (Homo sapiens, UniProt Q15303). Put plainly: Inhibition of recombinant ErbB4 (unknown origin) using poly (Glu,Tyr) 4:1 as substrate after 60 mins by ELISA.
Series [5] addresses Insulin-like growth factor 1 receptor (Homo sapiens, UniProt P08069). Put plainly: Inhibition of recombinant IGF1R (unknown origin) using poly (Glu,Tyr) 4:1 as substrate after 60 mins by ELISA.
Series [6] has as its target T1, Tyrosine-protein kinase receptor UFO (Homo sapiens, UniProt P30530).
T1 sequence (P30530 whole entry): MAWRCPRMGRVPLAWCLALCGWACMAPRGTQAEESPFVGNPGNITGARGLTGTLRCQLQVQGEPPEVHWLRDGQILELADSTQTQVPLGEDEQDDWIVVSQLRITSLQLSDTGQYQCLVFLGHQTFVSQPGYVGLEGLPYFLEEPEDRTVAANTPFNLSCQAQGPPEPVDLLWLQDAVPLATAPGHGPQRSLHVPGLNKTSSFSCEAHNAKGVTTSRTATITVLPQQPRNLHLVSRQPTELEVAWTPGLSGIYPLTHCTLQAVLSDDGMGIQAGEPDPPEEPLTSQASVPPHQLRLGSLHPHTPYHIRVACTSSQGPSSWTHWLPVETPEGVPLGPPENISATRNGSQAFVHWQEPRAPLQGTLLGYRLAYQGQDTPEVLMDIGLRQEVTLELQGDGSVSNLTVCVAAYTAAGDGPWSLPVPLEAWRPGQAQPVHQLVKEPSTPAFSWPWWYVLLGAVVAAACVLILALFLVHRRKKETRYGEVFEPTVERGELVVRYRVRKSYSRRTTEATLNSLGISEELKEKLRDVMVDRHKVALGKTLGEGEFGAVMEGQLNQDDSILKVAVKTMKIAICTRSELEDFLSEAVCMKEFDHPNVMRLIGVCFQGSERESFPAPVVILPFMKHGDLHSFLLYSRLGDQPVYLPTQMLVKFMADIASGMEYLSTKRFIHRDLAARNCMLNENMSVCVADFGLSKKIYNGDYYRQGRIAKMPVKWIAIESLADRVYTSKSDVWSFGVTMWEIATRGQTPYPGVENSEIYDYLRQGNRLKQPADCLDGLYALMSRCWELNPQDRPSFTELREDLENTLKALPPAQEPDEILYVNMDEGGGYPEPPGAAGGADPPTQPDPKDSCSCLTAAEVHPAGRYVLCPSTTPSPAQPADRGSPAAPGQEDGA
Put plainly: Inhibition of recombinant AXL (unknown origin) using poly (Glu,Tyr) 4:1 as substrate after 60 mins by ELISA.

Series [7] concerns the target Insulin receptor (Homo sapiens, UniProt P06213). Briefly: Inhibition of recombinant IR (unknown origin) using poly (Glu,Tyr) 4:1 as substrate after 60 mins by ELISA.
Series [8] addresses ALK tyrosine kinase receptor (Homo sapiens, UniProt Q9UM73).
Description: Inhibition of recombinant ALK (unknown origin) using poly (Glu,Tyr) 4:1 as substrate after 60 mins by ELISA
The target of series [9] is Epidermal growth factor receptor (Homo sapiens, UniProt P00533).
Description: Inhibition of recombinant EGFR (unknown origin) using poly (Glu,Tyr) 4:1 as substrate after 60 mins by ELISA
Series [10] has as its target T2, Tyrosine-protein kinase receptor TYRO3 (Homo sapiens, UniProt Q06418).
T2 sequence (Q06418 whole entry): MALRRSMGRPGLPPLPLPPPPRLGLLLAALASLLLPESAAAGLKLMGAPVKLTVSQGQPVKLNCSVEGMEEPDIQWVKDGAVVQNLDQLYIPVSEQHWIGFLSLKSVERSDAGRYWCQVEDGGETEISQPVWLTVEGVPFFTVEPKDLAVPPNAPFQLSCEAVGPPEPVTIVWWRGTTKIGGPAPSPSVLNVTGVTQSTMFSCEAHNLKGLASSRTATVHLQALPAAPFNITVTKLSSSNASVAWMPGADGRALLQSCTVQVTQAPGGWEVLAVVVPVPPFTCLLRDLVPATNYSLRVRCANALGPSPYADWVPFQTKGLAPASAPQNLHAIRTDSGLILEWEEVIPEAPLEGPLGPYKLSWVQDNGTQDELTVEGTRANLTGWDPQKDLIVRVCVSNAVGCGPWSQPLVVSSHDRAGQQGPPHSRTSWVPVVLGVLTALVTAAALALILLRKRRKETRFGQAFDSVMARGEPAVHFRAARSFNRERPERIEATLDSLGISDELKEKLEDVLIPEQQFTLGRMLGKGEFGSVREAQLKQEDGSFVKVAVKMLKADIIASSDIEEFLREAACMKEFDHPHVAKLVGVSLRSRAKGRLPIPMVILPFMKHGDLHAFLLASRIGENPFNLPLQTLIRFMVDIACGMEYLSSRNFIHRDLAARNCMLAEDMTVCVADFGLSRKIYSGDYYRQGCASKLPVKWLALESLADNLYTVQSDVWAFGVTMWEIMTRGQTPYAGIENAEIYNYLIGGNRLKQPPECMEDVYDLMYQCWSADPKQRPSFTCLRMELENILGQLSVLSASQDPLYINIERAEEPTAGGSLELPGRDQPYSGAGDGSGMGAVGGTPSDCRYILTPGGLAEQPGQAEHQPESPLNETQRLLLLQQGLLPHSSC
Put plainly: Inhibition of recombinant Tyro3 (unknown origin) using poly (Glu,Tyr) 4:1 as substrate after 60 mins by ELISA.

Series [11] has as its target Hepatocyte growth factor receptor (Homo sapiens, UniProt P08581). Put plainly: Inhibition of recombinant c-Met (unknown origin) using poly (Glu,Tyr) 4:1 as substrate after 60 mins by ELISA.
Series [12] addresses Epidermal growth factor receptor (Homo sapiens, UniProt P00533, L858R/T790M). Put plainly: Inhibition of recombinant EGFR T790M/L858R mutant (unknown origin) using poly (Glu,Tyr) 4:1 as substrate after 60 mins by ELISA.
Series [13] addresses Fibroblast growth factor receptor 4 (Homo sapiens, UniProt P22455). Put plainly: Inhibition of recombinant human FGFR4 using poly (Glu,Tyr) 4:1 as substrate after 60 mins by ELISA.
A short description of series [14]: Cmax in Sprague-Dawley rat at 10 mg/kg, iv by LC-MS/MS method. The class given is ADME, organism-based. Details: dose 10 mg/kg, route intravenous. Conditions: in vivo.
The nature of series [15]: Oral bioavailability in Sprague-Dawley rat at 20 mg/kg by LC-MS/MS method. As to conditions: in vivo. The series is classed as ADME, organism-based.
For series [16], the target named is Discoidin domain-containing receptor 2 (Homo sapiens, UniProt Q16832). Briefly: Inhibition of recombinant DDR2 (unknown origin) using poly (Glu,Tyr) 4:1 as substrate after 60 mins by ELISA.
Series [17] in a line: Tmax in CD-1 mouse at 20 mg/kg, po by LC-MS/MS method. The series is classed as ADME, organism-based. Conditions: in vivo.

Structures are written as SMILES.

Chain of Cyclin-dependent kinase 1 (P06493 whole entry): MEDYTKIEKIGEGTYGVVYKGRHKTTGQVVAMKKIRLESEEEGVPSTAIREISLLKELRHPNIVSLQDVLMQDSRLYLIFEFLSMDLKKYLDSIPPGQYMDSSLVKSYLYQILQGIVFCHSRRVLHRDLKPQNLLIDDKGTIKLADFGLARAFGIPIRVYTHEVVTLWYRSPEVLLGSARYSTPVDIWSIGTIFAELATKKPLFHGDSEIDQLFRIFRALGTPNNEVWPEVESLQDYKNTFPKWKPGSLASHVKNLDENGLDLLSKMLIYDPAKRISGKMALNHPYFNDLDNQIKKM
Chain of Insulin receptor (P06213 28-758 limits assumed): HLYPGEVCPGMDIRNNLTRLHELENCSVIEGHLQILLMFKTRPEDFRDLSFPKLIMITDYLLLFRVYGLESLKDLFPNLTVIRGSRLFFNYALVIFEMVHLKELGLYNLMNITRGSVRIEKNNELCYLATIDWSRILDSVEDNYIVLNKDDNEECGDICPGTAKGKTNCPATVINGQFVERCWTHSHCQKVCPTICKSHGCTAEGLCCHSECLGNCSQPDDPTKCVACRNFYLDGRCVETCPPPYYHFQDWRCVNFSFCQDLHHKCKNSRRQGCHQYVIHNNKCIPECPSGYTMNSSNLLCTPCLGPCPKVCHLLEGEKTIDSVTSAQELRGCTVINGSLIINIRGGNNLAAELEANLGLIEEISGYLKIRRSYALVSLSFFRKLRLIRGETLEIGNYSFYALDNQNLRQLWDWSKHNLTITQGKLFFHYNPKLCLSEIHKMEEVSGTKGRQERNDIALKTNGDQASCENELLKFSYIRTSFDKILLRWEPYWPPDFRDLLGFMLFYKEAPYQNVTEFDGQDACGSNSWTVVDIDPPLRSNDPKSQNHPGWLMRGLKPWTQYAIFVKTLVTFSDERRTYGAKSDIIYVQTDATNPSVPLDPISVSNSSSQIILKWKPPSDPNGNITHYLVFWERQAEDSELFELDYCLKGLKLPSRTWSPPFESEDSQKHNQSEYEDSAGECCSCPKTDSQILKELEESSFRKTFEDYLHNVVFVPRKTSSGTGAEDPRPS
Chain of Insulin receptor (P06213 763-1382 limits assumed): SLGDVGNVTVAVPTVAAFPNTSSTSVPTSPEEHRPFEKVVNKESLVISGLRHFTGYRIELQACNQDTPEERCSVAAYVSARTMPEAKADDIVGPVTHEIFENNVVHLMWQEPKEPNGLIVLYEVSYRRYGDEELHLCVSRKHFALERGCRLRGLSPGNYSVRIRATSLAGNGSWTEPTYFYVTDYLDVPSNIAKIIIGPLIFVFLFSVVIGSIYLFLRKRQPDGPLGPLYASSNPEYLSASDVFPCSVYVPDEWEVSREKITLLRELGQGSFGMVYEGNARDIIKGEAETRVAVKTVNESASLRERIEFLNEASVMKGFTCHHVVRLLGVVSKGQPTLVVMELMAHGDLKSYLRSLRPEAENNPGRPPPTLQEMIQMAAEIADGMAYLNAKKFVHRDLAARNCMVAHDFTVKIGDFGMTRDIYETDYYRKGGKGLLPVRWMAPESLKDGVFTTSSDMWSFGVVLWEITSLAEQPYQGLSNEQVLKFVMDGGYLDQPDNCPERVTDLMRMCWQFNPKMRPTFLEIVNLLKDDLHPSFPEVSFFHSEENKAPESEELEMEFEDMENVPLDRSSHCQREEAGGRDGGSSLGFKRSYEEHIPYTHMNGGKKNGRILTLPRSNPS
Chain of Leukocyte tyrosine kinase receptor (P29376 whole entry): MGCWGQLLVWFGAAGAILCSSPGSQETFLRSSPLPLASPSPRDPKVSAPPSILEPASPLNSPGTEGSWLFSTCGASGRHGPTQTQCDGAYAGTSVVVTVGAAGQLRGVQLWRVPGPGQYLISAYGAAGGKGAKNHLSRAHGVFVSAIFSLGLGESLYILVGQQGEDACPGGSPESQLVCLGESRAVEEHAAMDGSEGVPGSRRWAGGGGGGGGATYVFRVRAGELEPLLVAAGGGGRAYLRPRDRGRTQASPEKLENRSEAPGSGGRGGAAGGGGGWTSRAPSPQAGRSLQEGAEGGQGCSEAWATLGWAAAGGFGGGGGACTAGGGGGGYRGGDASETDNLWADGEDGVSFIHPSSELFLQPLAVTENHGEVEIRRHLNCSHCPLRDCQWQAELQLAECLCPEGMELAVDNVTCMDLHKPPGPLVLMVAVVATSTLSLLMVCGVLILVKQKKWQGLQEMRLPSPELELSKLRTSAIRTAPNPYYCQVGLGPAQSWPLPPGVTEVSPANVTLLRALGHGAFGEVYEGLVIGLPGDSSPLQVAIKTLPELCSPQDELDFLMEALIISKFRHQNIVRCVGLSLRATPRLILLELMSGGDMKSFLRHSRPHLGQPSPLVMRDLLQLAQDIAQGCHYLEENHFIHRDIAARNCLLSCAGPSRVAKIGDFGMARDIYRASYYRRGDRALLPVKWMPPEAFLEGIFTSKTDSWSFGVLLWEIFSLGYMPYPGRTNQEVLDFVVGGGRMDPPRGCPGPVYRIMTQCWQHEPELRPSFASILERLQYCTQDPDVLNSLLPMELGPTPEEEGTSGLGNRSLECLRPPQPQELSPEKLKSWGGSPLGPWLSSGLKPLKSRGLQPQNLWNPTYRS
Chain of Epidermal growth factor receptor (Homo sapiens, UniProt P00533, L858R/T790M) (P00533 25-1210 T790M/L858R limits assumed): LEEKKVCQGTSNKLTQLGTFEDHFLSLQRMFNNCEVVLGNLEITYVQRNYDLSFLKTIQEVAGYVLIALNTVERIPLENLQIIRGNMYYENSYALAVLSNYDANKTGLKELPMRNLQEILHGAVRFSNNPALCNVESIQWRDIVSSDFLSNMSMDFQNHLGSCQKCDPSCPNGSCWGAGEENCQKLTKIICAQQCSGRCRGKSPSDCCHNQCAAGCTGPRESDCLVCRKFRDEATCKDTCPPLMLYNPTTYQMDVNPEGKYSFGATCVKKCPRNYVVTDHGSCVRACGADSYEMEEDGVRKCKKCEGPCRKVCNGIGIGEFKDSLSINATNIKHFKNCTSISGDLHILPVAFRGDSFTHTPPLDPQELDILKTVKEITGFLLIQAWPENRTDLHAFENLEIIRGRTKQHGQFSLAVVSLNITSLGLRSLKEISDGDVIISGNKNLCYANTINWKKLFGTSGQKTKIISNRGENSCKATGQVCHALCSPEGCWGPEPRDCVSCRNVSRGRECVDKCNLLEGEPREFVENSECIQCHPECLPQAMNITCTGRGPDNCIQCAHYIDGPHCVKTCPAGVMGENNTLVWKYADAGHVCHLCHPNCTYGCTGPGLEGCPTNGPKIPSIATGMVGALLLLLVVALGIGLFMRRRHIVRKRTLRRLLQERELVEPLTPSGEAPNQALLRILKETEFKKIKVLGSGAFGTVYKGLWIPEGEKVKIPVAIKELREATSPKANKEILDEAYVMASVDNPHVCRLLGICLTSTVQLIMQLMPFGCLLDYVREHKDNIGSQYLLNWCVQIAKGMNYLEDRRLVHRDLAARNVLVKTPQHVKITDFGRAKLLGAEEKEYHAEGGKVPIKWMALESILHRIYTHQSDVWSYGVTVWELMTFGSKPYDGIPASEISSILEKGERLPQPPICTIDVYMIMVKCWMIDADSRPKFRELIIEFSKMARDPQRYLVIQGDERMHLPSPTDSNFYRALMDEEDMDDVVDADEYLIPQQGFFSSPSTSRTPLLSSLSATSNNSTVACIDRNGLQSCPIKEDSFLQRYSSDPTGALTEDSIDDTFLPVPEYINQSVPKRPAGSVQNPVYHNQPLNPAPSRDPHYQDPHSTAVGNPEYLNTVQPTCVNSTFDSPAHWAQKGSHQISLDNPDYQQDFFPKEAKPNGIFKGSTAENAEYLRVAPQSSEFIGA
Chain of Fibroblast growth factor receptor 4 (P22455 whole entry): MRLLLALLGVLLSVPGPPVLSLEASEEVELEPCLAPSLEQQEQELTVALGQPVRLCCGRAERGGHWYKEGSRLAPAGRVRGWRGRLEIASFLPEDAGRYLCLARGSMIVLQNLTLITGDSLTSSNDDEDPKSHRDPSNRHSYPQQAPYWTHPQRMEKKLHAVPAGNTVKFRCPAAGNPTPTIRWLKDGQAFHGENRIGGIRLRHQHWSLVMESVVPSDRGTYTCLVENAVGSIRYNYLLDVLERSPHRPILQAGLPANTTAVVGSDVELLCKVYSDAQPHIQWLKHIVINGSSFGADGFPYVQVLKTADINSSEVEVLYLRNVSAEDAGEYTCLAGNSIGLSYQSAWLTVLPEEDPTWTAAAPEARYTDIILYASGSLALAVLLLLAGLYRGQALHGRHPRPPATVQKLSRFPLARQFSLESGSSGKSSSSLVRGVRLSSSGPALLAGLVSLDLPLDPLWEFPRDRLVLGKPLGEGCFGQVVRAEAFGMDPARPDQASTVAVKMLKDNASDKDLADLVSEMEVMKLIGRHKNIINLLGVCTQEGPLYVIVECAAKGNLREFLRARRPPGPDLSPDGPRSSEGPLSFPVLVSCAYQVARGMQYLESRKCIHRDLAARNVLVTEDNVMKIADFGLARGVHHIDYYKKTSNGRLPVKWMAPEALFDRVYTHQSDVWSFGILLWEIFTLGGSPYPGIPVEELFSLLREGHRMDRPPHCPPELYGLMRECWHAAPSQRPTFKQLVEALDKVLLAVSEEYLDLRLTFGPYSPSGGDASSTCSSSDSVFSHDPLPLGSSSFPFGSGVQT

Turning to `Cc1n[nH]c2ccc(-c3cc(N[C@@H](CO)c4ccccc4)cnc3-c3cc(Cl)ccc3O)cc12`, the IC50 – broadly, the concentration at which inhibition is half-maximal – in series [1] was more than 1000 nM; in series [2] it was 300 nM; in series [3], 3.7 nM; in series [4], 5.3 nM; in [5], more than 100 nM; in series [6], more than 1000 nM. The IC50 in series [7] is 91.6 nM; in series [8], 231 nM; in series [9] it was 3.1 nM; in series [10], more than 1000 nM; in [11], more than 1000 nM; in series [12], 8.6 nM. Moreover, the IC50 in series [13] was determined as 61.7 nM.
As for `Cc1n[nH]c2ccc(-c3cc(N[C@@H](CO)c4ccccc4)cnc3-c3ccc(F)cc3O)cc12`, the half-maximal inhibitory concentration (IC50) was more than 1000 nM in series [1]; 68.5 nM in series [2]; 2.6 nM in series [3]; 2.4 nM in series [4]; more than 1000 nM in series [5]; more than 1000 nM in [6]. The IC50 in series [7] is 888 nM; in [8], 155 nM; in series [9], 8.1 nM; in series [10], more than 1000 nM; in [11], more than 1000 nM; in [12], 1.3 nM. Moreover, in series [13], the concentration for half-maximal inhibition (IC50) worked out at 93.3 nM.
With `Cc1n[nH]c2ccc(-c3cc(N[C@@H](CO)c4ccccc4)cnc3-c3cc(F)ccc3O)cc12`, the half-inhibitory concentration (IC50) is more than 1000 nM in series [1]; 123 nM in series [2]; 1.7 nM in series [3]; 6.2 nM in series [4]; 0.8 nM in [16]; more than 1000 nM in series [5]. Further, the IC50 in series [6] is more than 1000 nM; in [7] it was 417 nM; in series [8], 101 nM; in [9] it was 4.7 nM; in [10] it was more than 1000 nM; in series [11] it was more than 1000 nM. Besides, the IC50 is 6 nM in [12] and 299 nM in series [13]. For the same compound, the concentration in series [14] peaked (Cmax) at 6540 ng/mL. Also, the bioavailability – broadly, the share of a dose that reaches the circulation, judged against a reference dose that is usually intravenous – in series [15] was 60%. Moreover, the Tmax (usually the time at which the peak concentration occurs) in [17] was determined as 25.2 min.
In the case of `OC[C@H](Nc1cnc(-c2cc(Cl)ccc2O)c(-c2ccc3cnccc3c2)c1)c1ccccc1`, the IC50 was more than 1000 nM in series [1]; 45.3 nM in series [2]; 0.8 nM in series [3]; 5 nM in series [4]; more than 1000 nM in series [5]; more than 1000 nM in series [6]. Also, the IC50 in series [7] was 431 nM; in series [8], 93.9 nM; in series [9], 4.2 nM; in series [10] it was more than 1000 nM; in [11], 196 nM; in series [12] it was 1.9 nM. The IC50 in [13] was found to be 7.4 nM.
